Assay results taken from patent US20200016136A1 (VIIV HEALTHCARE UK (NO. 5) LIMITED, priority 2017, published 2020).
pEC50: −log10 of the molar value.

Tested on: NL-RLuc virus (recombinant NL4-3 HIV with Renilla Luciferase gene)
Assay: Inhibition of HIV replication (NL-RLuc virus in MT-2 cells, luciferase readout)
Assay type: cell-based, Human immunodeficiency virus (HIV)
Conditions: MT2, 120 h
Outline: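 MT-2 cells infected with NL4-3-derived virus carrying Renilla luciferase in place of part of nef, grown 5 days with serial compound dilutions in RPMI 1640/10% FBS. Virus growth read as luciferase expression. EC50 from median effect equation, at least 2 experiments.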

SMILES | pEC50
Cc1cccc(Cl)c1CN1CCc2cc(-c3c(NCCN4CCOCC4)nc(C)c([C@H](OC(C)(C)C)C(=O)O)c3N3CCC(C)(C)CC3)ccc2C1 [Example 5, (S)-2-(tert-Butoxy)-2-(5-(2-(2-chloro-6-methylbenzyl)-1,2,3,4-tetrahydroisoquinolin-6-yl)-4-(4,4-dimethylpiperidin-1-yl)-2-methyl-6-((2-morpholinoethyl)amino)pyridin-3-yl)acetic Acid] | 8.70
CC1(C)CCN(c2c(-c3ccc4c(c3)CCN(c3nccc(-c5cnccn5)n3)C4)cnc(Cl)c2[C@H](OC(C)(C)C)C(=O)O)CC1 [Example 153, (S)-2-(tert-Butoxy)-2-(2-chloro-4-(4,4-dimethylpiperidin-1-yl)-5-(2-(4-(pyrazin-2-yl)pyrimidin-2-yl)-1,2,3,4-tetrahydroisoquinolin-6-yl)pyridin-3-yl)acetic Acid] | 8.70
Cc1cccc(Cl)c1CN1CCc2cc(-c3c(CN(C)CC4CCOCC4)nc(Cl)c([C@H](OC(C)(C)C)C(=O)O)c3N3CCC(C)(C)CC3)ccc2C1 [Example 98, (S)-2-(tert-Butoxy)-2-(2-chloro-5-(2-(2-chloro-6-methylbenzyl)-1,2,3,4-tetrahydroisoquinolin-6-yl)-4-(4,4-dimethylpiperidin-1-yl)-6-((methyl((tetrahydro-2H-pyran-4-yl)methyl)amino)methyl)pyridin-3-yl)acetic Acid] | 9.15
CC1(C)CCN(c2c(-c3ccc4c(c3)CCN(c3nccc(-c5cccnc5)n3)C4)c(N)nc(Cl)c2[C@H](OC(C)(C)C)C(=O)O)CC1 [Example 101, (S)-2-(6-Amino-2-chloro-4-(4,4-dimethylpiperidin-1-yl)-5-(2-(4-(pyridin-3-yl)pyrimidin-2-yl)-1,2,3,4-tetrahydroisoquinolin-6-yl)pyridin-3-yl)-2-(tert-butoxy)acetic Acid] | 8.70
Cc1nc(C)c([C@H](OC(C)(C)C)C(=O)O)c(N2CCC(C)(C)CC2)c1-c1ccc2c(c1)CCN(c1ccnc(N3CCCCC3)n1)C2 [Example 22, (2S)-2-(tert-Butoxy)-2-[4-(4,4-dimethylpiperidin-1-yl)-2,6-dimethyl-5-{2-[2-(piperidin-1-yl)pyrimidin-4-yl]-1,2,3,4-tetrahydroisoquinolin-6-yl}pyridin-3-yl]acetic Acid] | 8.52
Cc1ccccc1-c1cccc(N2CCc3cc(-c4c(C)nc(C)c([C@H](OC(C)(C)C)C(=O)O)c4N4CCC(C)(C)CC4)ccc3C2)n1 [Example 88, (S)-2-(tert-Butoxy)-2-(4-(4,4-dimethylpiperidin-1-yl)-2,6-dimethyl-5-(2-(6-(o-tolyl)pyridin-2-yl)-1,2,3,4-tetrahydroisoquinolin-6-yl)pyridin-3-yl)acetic Acid] | 7.60
Cc1nc(C)c([C@H](OC(C)(C)C)C(=O)O)c(N2CCC(C)(C)CC2)c1-c1ccc2c(c1)CCN(c1nccc(N3CCCCC3)n1)C2 [Example 23, (2S)-2-(tert-Butoxy)-2-[4-(4,4-dimethylpiperidin-1-yl)-2,6-dimethyl-5-{2-[4-(piperidin-1-yl)pyrimidin-2-yl]-1,2,3,4-tetrahydroisoquinolin-6-yl}pyridin-3-yl]acetic Acid] | 8.52
Cc1nc(C)c([C@H](OC(C)(C)C)C(=O)O)c(N2CCC(C)(C)CC2)c1-c1ccc2c(c1)CCN(c1cc(N3CCOCC3)ccn1)C2 [Example 83, (S)-2-(tert-Butoxy)-2-(4-(4,4-dimethylpiperidin-1-yl)-2,6-dimethyl-5-(2-(4-morpholinopyridin-2-yl)-1,2,3,4-tetrahydroisoquinolin-6-yl)pyridin-3-yl)acetic Acid] | 8.30
Cc1nc(C)c([C@H](OC(C)(C)C)C(=O)O)c(N2CCC(C)(C)CC2)c1-c1ccc2c(c1)CCN(c1nccc(N3CCC4(CCC4)CC3)n1)C2 [Example 25, (2S)-2-{5-[2-(4-{7-Azaspiro[3.5]nonan-7-yl}pyrimidin-2-yl)-1,2,3,4-tetrahydroisoquinolin-6-yl]-4-(4,4-dimethylpiperidin-1-yl)-2,6-dimethylpyridin-3-yl}-2-(tert-butoxy)acetic Acid] | 8.30
Cc1nc(C)c([C@H](OC(C)(C)C)C(=O)O)c(N2CCC(C)(C)CC2)c1-c1ccc2c(c1)CCN(c1nccc(-c3cccnc3)n1)C2 [Example 105, (S)-2-(tert-Butoxy)-2-(4-(4,4-dimethylpiperidin-1-yl)-2,6-dimethyl-5-(2-(4-(pyridin-3-yl)pyrimidin-2-yl)-1,2,3,4-tetrahydroisoquinolin-6-yl)pyridin-3-yl)acetic Acid] | 9.00
Cc1nc(C)c([C@H](OC(C)(C)C)C(=O)O)c(N2CCC(C)(C)CC2)c1-c1ccc2c(c1)CCN(c1cc(N3CCC(N4CCN(C)CC4)CC3)ncn1)C2 [Example 136, (S)-2-(tert-Butoxy)-2-(4-(4,4-dimethylpiperidin-1-yl)-2,6-dimethyl-5-(2-(6-(4-(4-methylpiperazin-1-yl)piperidin-1-yl)pyrimidin-4-yl)-1,2,3,4-tetrahydroisoquinolin-6-yl)pyridin-3-yl)acetic Acid] | 7.80
Cc1ncc(-c2ccc3c(c2)CCN(c2ncnc4c2oc2ncccc24)C3)c(N2CCC(C)(C)CC2)c1[C@H](OC(C)(C)C)C(=O)O [Example 48, (2S)-2-(tert-Butoxy)-2-[4-(4,4-dimethylpiperidin-1-yl)-2-methyl-5-(2-{8-oxa-3,5,10-triazatricyclo[7.4.0.0^2,7]trideca-1(9),2,4,6,10,12-hexaen-6-yl}-1,2,3,4-tetrahydroisoquinolin-6-yl)pyridin-3-yl]acetic Acid] | 9.22
Cc1nc(CO)c([C@H](OC(C)(C)C)C(=O)O)c(N2CCC(C)(C)CC2)c1-c1ccc2c(c1)CCN(c1ncnc3c1oc1ccccc13)C2 [Example 133, (S)-2-(5-(2-(Benzofuro[3,2-d]pyrimidin-4-yl)-1,2,3,4-tetrahydroisoquinolin-6-yl)-4-(4,4-dimethylpiperidin-1-yl)-2-(hydroxymethyl)-6-methylpyridin-3-yl)-2-(tert-butoxy)acetic Acid] | 8.52
Cc1nc(NC2CCN(C)CC2)c(-c2ccc3c(c2)CCN(c2ncnc4c2oc2ccccc24)C3)c(N2CCC(C)(C)CC2)c1[C@H](OC(C)(C)C)C(=O)O [Example 12, (S)-2-(5-(2-(Benzofuro[3,2-d]pyrimidin-4-yl)-1,2,3,4-tetrahydroisoquinolin-6-yl)-4-(4,4-dimethylpiperidin-1-yl)-2-methyl-6-((1-methylpiperidin-4-yl)amino)pyridin-3-yl)-2-(tert-butoxy)acetic Acid] | 9.00
CC1(C)CCN(c2c(-c3ccc4c(c3)CCN(c3nccc(N5CCOCC5)n3)C4)cnc(Cl)c2[C@H](OC(C)(C)C)C(=O)O)CC1 [Example 148, (S)-2-(tert-Butoxy)-2-(2-chloro-4-(4,4-dimethylpiperidin-1-yl)-5-(2-(4-morpholinopyrimidin-2-yl)-1,2,3,4-tetrahydroisoquinolin-6-yl)pyridin-3-yl)acetic Acid] | 9.70
CC1(C)CCN(c2c(-c3ccc4c(c3)CCN(c3ncnc5c3oc3ncccc35)C4)c(CN3CCC4(CCC4)CC3)nc(Cl)c2[C@H](OC(C)(C)C)C(=O)O)CC1 [Example 152, (S)-2-(6-((7-Azaspiro[3.5]nonan-7-yl)methyl)-2-chloro-4-(4,4-dimethylpiperidin-1-yl)-5-(2-(pyrido[3′,2′:4,5]furo[3,2-d]pyrimidin-4-yl)-1,2,3,4-tetrahydroisoquinolin-6-yl)pyridin-3-yl)-2-(tert-butoxy)acetic Acid] | 10.00
Cc1nc(C)c([C@H](OC(C)(C)C)C(=O)O)c(N2CCC(C)(C)CC2)c1-c1ccc2c(c1)CCN(c1cc(N3CCN(C)CC3)ncn1)C2 [Example 129, (S)-2-(tert-Butoxy)-2-(4-(4,4-dimethylpiperidin-1-yl)-2,6-dimethyl-5-(2-(6-(4-methylpiperazin-1-yl)pyrimidin-4-yl)-1,2,3,4-tetrahydroisoquinolin-6-yl)pyridin-3-yl)acetic Acid] | 7.92
Cc1cccc(Cl)c1CN1CCc2cc(-c3cnc(Cl)c([C@H](OC(C)(C)C)C(=O)O)c3N3CCC(C)(C)CC3)ccc2C1 [Example 102, (S)-2-(tert-Butoxy)-2-(2-chloro-5-(2-(2-chloro-6-methylbenzyl)-1,2,3,4-tetrahydroisoquinolin-6-yl)-4-(4,4-dimethylpiperidin-1-yl)pyridin-3-yl)acetic Acid] | 8.10
Cc1nc(CO)c(-c2ccc3c(c2)CCN(c2nccc(-c4cccnc4)n2)C3)c(N2CCC(C)(C)CC2)c1[C@H](OC(C)(C)C)C(=O)O [Example 164, (S)-2-(tert-Butoxy)-2-(4-(4,4-dimethylpiperidin-1-yl)-6-(hydroxymethyl)-2-methyl-5-(2-(4-(pyridin-3-yl)pyrimidin-2-yl)-1,2,3,4-tetrahydroisoquinolin-6-yl)pyridin-3-yl)acetic Acid] | 8.70
Cc1nc(C)c([C@H](OC(C)(C)C)C(=O)O)c(N2CCC(C)(C)CC2)c1-c1ccc2c(c1)CCN(c1cccc(F)n1)C2 [Example 94, (S)-2-(tert-Butoxy)-2-(4-(4,4-dimethylpiperidin-1-yl)-5-(2-(6-fluoropyridin-2-yl)-1,2,3,4-tetrahydroisoquinolin-6-yl)-2,6-dimethylpyridin-3-yl)acetic Acid] | 8.40
Cc1nc(C)c([C@H](OC(C)(C)C)C(=O)O)c(N2CCC(C)(C)CC2)c1-c1ccc2c(c1)CCN(c1ncc(F)cc1F)C2 [Example 72, (S)-2-(tert-Butoxy)-2-(5-(2-(3,5-difluoropyridin-2-yl)-1,2,3,4-tetrahydroisoquinolin-6-yl)-4-(4,4-dimethylpiperidin-1-yl)-2,6-dimethylpyridin-3-yl)acetic Acid] | 8.10
Cc1nc(C)c([C@H](OC(C)(C)C)C(=O)O)c(N2CCC(C)(C)CC2)c1-c1ccc2c(c1)CCN(c1cnnc(N3CCOCC3)c1)C2 [Example 73, (S)-2-(tert-Butoxy)-2-(4-(4,4-dimethylpiperidin-1-yl)-2,6-dimethyl-5-(2-(6-morpholinopyridazin-4-yl)-1,2,3,4-tetrahydroisoquinolin-6-yl)pyridin-3-yl)acetic Acid] | 7.16
